Some results are limits rather than exact numbers.

The nature of data set [1]: Kinetic aqueous solubility (Pion µSOL assay). To be noted: pH 7.4. As to the method:
Samples were incubated at room temperature for 6 h and vacuum-filtered using Tecan Te-Vac to remove any precipitates. The concentration of the compound in the filtrate was measured via UV absorbance (λ: 250–498 nm). […] All compounds were tested in duplicates. The kinetic solubility (µg/mL) of compounds was calculated using the µSOL Evolution software.

Data set [2] can be described thus: Parallel artificial membrane permeability assay (PAMPA). The conditions noted are these: pH 7.4. Here is the method: The test samples (0.05 mM test article in pH 7.4 buffer with 0.5% DMSO) were added in the donor compartment and were stirred using the Gutbox technology (Pion Inc.) to reduce the aqueous boundary layer. The test article concentrations in the donor and acceptor compartments were measured using a UV plate reader (Nano Quant, Infinite 200 PRO, Tecan Inc., Männedorf, Switzerland).

A short description of data set [3]: Incubation in liver cytosolic fractions. Format: in vitro ADME. The conditions noted are these: mouse, hamster, human, read-out: in vitro metabolic half-life (t1/2). As to the method: The in vitro metabolic stability of PDN was determined in the plasma and liver fractions of three species. […] Based on the formation of Nc in plasma, about 51%, 16%, and 10% of depleted PDN were converted to Nc in mouse, hamster, and human plasma, respectively. PDN was also metabolized in the liver microsomes. However, due to the fast metabolism of formed Nc in liver microsomes (sequential metabolism), only a trace amount of Nc was detected after incubation of PDN. Therefore, the metabolism kinetics of PDN was investigated to obtain the Vmax, in vitro, app and Km values of PDN depletion (Table 3).

The test system of a further data set is SARS-CoV-2. The arrangement: method as in Huang et al., 2022. The conditions noted are these: cytopathic effect assay and cytotoxicity counter screen; ref Huang et al., 2022; cited from earlier work.
The nature of data set [4]: Metabolic stability in plasma. The conditions noted are these: for Plasma k: mouse, in vitro.

On to `O=C(Nc1ccc([N+](=O)[O-])cc1Cl)c1cc(Cl)ccc1OC(=O)N1CCNCC1` [PDN], for which, in data set [1], the “increase in solubility compared with Nc” value was 40 fold and the solubility (kinetic) at 6 h is > 43.5 µg/mL. The apparent permeability coefficient (Papp) at 0.05 mM in data set [2] was > 100 ×10⁻⁶ cm/s. The half-life in data set [3] was > 2 h. In the data set on SARS-CoV-2, the “in vitro activity against SARS-CoV-2” value is on record as “showed in vitro activity against SARS-CoV-2”. The compound also had a Plasma k in data set [4] (conversion to Nc) of 0.0058 s⁻¹. Also, in data set [4] (conversion to Others), the Plasma k was 0.0062 s⁻¹. For the same compound, the “kin vitro,app, PDN-total (total depletion of PDN)” value in data set [4] (mouse plasma, 37°C) was found to be 0.0120 ± 0.0015 min⁻¹.
